Source: patent publication US20250034171A1, “IMIDAZOPYRIDINE AMIDES AND RELATED COMPOUNDS FOR USE IN THE TREATMENT OF BACTERIAL INFECTIONS” (priority 2021, published 2025)
Converted amounts (≈) assume the structure as drawn. Where two headings read alike, the source gives them in different places.

Tests used:
[1] = Metabolic stability in liver microsomes (intrinsic clearance); assay type: in vitro ADME; conditions: for half-life at 1 µM / microsomal CLint at 1 µM: microsomes; for Metabolic Stability (liver microsome intrinsic clearance) Clearance (mouse, μl/min./mg protein) / Metabolic Stability Half life (mouse, min.): mouse liver microsomes
Experimental: The test compound was incubated under the generic condition (0.5 mg/ml microsomal protein, 1 mM NADPH, 1 mM MgCl2, and 0.1 M phosphate buffer, pH 7.4, 37° C.) at a defined substrate concentration (typically 1 μM) in liver microsomes of selected species across a time course (typically 0, 5, 10, 20, 40 and 60 minutes) at Cyprotex (Cheshire, UK). The liver microsomes, buffer and test compound will be pre-incubated for 5 minutes. The addition of the co-factor NADPH will initiate the reaction and the reaction was terminated by addition of acetonitrile. The samples were centrifuged prior to analysis by LC-MS/MS analysis. The relative amount of parent compound remaining in the active incubations vs. the control incubations (t=0 mins) for each compound was measured by peak area comparison. The in vitro metabolic half-life (t1/2) was calculated using the slope of the log-linear regression from the percentage parent compound remaining versus time relationship (κ), The in vitro intrinsic clearance (Cl^int) (μl/min/mg microsomal protein) was calculated using the in vitro metabolic half-life, incubation volume and the weight of microsomal protein in the incubation.

[2] = system: Salmonella typhimurium Ames II Mixed Strains (TA7001-TA7006) and TA98; test: Genotoxicity assay (AmesIIb mutagenicity test); assay type: cell-based; further: key: an AmesIIb score of 1 shows no genotoxicity signals
From the text: The aim is to evaluate compounds (and/or their metabolites) for their ability to induce reverse mutations in a gene of histidine-requiring Salmonella typhimurium strains to produce histidine-independent strains of these bacteria, in the absence and in the presence of a mammalian metabolic activation system.
Point mutations were made in the histidine (His) operon in Salmonella typhimurium, rendering the bacteria incapable of producing histidine. These single base substitutions are positioned at strategic points within the His gene, resulting in his-organisms that cannot grow unless histidine is supplied. When a mutagenic event occurs, base substitutions within the His gene then cause the reversion of the his-Ames II™ strains to His.
A chemical's mutagenic potential is assessed by exposing these his-organisms to varying concentrations of chemical and selecting for the reversion event. Medium lacking histidine is used for this selection which allows only those cells that have undergone the his- to His reversion to survive and grow.
The assay may be performed using a kit and instructions from Xenometric. The two strains provided in the Xenometric kit are the Ames II™ Mixed Strains and TA98. The Ames II™ Mixed Strains contains an equimolar mixture of the Ames II™ TA7001-TA7006 strains. Individually, these strains are designed to revert by only one specific base-pair substitution out of six possible changes. Thus, when mixed, all six base substitution mutations can be represented in one culture. This kit also contains TA98 for the detection of frameshift mutations.

[3] = system: Mycobacterium tuberculosis strain H37Rv; test: Test 2: MIC determination against M. tuberculosis, resazurin fluorescence; assay type: cell-based; conditions: Test 2, M. tuberculosis H37Rv; for MIC90: read-out: Bacterial activity MIC90; for IC50: read-out: Bacterial activity pMIC50 (converted)
[4] = mouse, pH 7.4, Metabolic Stability Half life (mouse, min.)
[5] = mouse, pH 7.4, mouse liver microsomes, read-out: Metabolic Stability (liver microsome intrinsic clearance) Clearance (mouse, μl/min./mg protein)
[6] = Mycobacterium tuberculosis, H37RV
[7] = human, pH 7.4, Metabolic Stability Half life (human, min.)
[8] = human, pH 7.4, human liver microsomes, read-out: Metabolic Stability (liver microsome intrinsic clearance) Clearance (human, μl/min./mg protein)

Structure (SMILES)	half-life at 1 µM [1, 4]	microsomal CLint at 1 µM [1, 5]	GeneTox AmesIIb Score ([2]; Salmonella typhimurium)	MIC90 [3, 6]	IC50 [3, 6]	half-life at 1 µM [1, 7]	microsomal CLint at 1 µM [1, 8]	Metabolic Stability (liver microsome intrinsic clearance) Clearance (human, μl/min./mg protein) ([1]; human liver microsomes)	Metabolic Stability Half life (human, min.) ([1]; human liver microsomes)	Metabolic Stability (liver microsome intrinsic clearance) Clearance (mouse, μl/min./mg protein) [1]	Metabolic Stability Half life (mouse, min.) [1]	GeneTox AmesIIb Score [2]	Bacterial activity pMIC50 [3]	MIC90 [3]
CCc1nc2ncc(C)cn2c1C(=O)NCc1ccc(-c2nc3n(n2)CCC(C)(C)C3)cc1 [Compound 144]	> 180 min	< 7.7 µL/min/mg	1	0.05 µM (≈ 0.0222 µg/mL)	12600 pM									
CCc1cnc2nc(CC)c(C(=O)NCc3ccc(-c4cn5c(n4)C[C@H](C(F)(F)F)CC5)cc3)n2c1 [Compound 151]	22.2 min	62.5 µL/min/mg	1	0.054 µM (≈ 0.0268 µg/mL)	18200 pM	4.3 min	326 µL/min/mg							
CCc1cnc2nc(CC)c(C(=O)NCc3ccc(-c4cn5c(n4)C[C@@H](C(F)(F)F)CC5)cc3)n2c1 [Compound 152]	10.7 min	129 µL/min/mg	1	0.088 µM (≈ 0.0437 µg/mL)	23400 pM	< 4 min	> 347 µL/min/mg							
CCc1nc2n(c1C(=O)NCc1ccc(-c3cc4n(n3)CCC(C(F)(F)F)C4)cc1)CCCC2 (stereo not shown) [Compound 179]	25.9 min	53.5 µL/min/mg	1	0.0097 µM (≈ 0.00457 µg/mL)	3310 pM									
CCc1nc2ncccn2c1C(=O)NCc1ccc(-c2nc3n(n2)CC[C@@H](C2CC2)C3)cc1 [Compound 183]	137 min	10.1 µL/min/mg	1	0.48 µM (≈ 0.212 µg/mL)	646000 pM									
CCc1nc2ncccn2c1C(=O)NCc1ccc(-c2nc3n(n2)CC[C@H](C2CC2)C3)cc1 [Compound 184]	> 180 min	< 7.7 µL/min/mg	1	0.43 µM (≈ 0.19 µg/mL)	166000 pM									
CCc1nc2ncc(NC(=O)OC(C)(C)C)cn2c1C(=O)NCc1ccc(-c2nc3n(n2)CCC(C(F)(F)F)C3)cc1 (stereo not shown) [Compound 194]								<7.7 μl/min./mg protein	>180 min	<7.7 μl/min./mg protein	>180 min	1	7.43	0.1 µM (≈ 0.0585 µg/mL)
CCc1nc2nc(C)c(N(Cc3ccc(OC)cc3OC)C(=O)OC(C)(C)C)cn2c1C(=O)NCc1ccc(-c2nc3n(n2)CC[C@H](C(F)(F)F)C3)cc1 [Compound 196]										<7.7 μl/min./mg protein	>180 min	1	7.56	0.067 µM (≈ 0.0502 µg/mL)
